From ChEMBL document CHEMBL1201862, “PubChem BioAssay data set” (2004)
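Briefly, cells in 96-well plates were exposed to five compound concentrations for 48 h, and endpoints were estimated by linear interpolation. Here, GI50 denotes the concentration required for 50% inhibition of growth.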 Active and inactive are the calls of the source. No stated cut-off is given here; in the data, active = GI50 up to about 1.1 µM and inactive = higher.

Key:
Assay in all cases: NCI tumour cell line growth inhibition, 48 h
786-0 = tested on: 786-0
A498 = tested on: A498
A549 = tested on: A549
ACHN = tested on: ACHN
CAKI-1 = tested on: CAKI-1
CCRF-CEM = tested on: CCRF-CEM
COLO 205 = tested on: COLO 205
DLD-1 = tested on: DLD-1
DMS-114 = tested on: DMS-114
DMS-273 = tested on: DMS-273
EKVX = tested on: EKVX
HCC 2998 = tested on: HCC 2998
HCT-116 = tested on: HCT-116
HCT-15 = tested on: HCT-15
HL-60 = tested on: HL-60
HOP-18 = tested on: HOP-18
HOP-62 = tested on: HOP-62
HOP-92 = tested on: HOP-92
HT-29 = tested on: HT-29
IGROV-1 = tested on: IGROV-1
K562 = tested on: K562
KM-20L2 = tested on: KM-20L2
KM12 = tested on: KM12
LOX IMVI = tested on: LOX IMVI
LXFL 529 = tested on: LXFL 529
M14 = tested on: M14
M19-MEL = tested on: M19-MEL
Malme-3M = tested on: Malme-3M
NCI-H226 = tested on: NCI-H226
NCI-H23 = tested on: NCI-H23
NCI-H460 = tested on: NCI-H460
NCI-H522 = tested on: NCI-H522
OVCAR-3 = tested on: OVCAR-3
OVCAR-4 = tested on: OVCAR-4
OVCAR-5 = tested on: OVCAR-5
OVCAR-8 = tested on: OVCAR-8
RXF 393 = tested on: RXF 393
SF-268 = tested on: SF-268
SF-295 = tested on: SF-295
SF-539 = tested on: SF-539
SK-MEL-28 = tested on: SK-MEL-28
SK-MEL-2 = tested on: SK-MEL-2
SK-MEL-5 = tested on: SK-MEL-5
SK-OV-3 = tested on: SK-OV-3
SN12C = tested on: SN12C
SNB-19 = tested on: SNB-19
SNB-75 = tested on: SNB-75
SNB-78 = tested on: SNB-78
SW-620 = tested on: SW-620
TK-10 = tested on: TK-10
U-251 = tested on: U-251
UACC-257 = tested on: UACC-257
UACC-62 = tested on: UACC-62
UO-31 = tested on: UO-31
XF498 = tested on: XF498
MOLT-4 = tested on: MOLT-4
RPMI-8226 = tested on: RPMI-8226
RXF 631 = tested on: RXF 631
SR = tested on: SR

Cc1cc(Cl)ccc1NC1=NC(=O)C(CC(=O)Nc2cccc(Cl)c2)S1 (stereo not given)
GI50 (786-0): 46.8 µM (inactive)
GI50 (A498): 23.8 µM (inactive)
GI50 (A549): 20.8 µM (inactive)
GI50 (ACHN): 11.2 µM (inactive)
GI50 (CAKI-1): 8.79 µM (inactive)
GI50 (CCRF-CEM): 22.6 µM (inactive)
GI50 (COLO 205): 72.1 µM (inactive)
GI50 (DLD-1): 21.7 µM (inactive)
GI50 (DMS-114): 12.1 µM (inactive)
GI50 (DMS-273): 29.8 µM (inactive)
GI50 (EKVX): > 100 µM (inactive)
GI50 (HCC 2998): 63.2 µM (inactive)
GI50 (HCT-116): 24.2 µM (inactive)
GI50 (HCT-15): 32.1 µM
GI50 (HL-60): 9.16 µM (inactive)
GI50 (HOP-18): > 100 µM (inactive)
GI50 (HOP-62): > 100 µM (inactive)
GI50 (HOP-92): 14.2 µM (inactive)
GI50 (HT-29): 20.5 µM (inactive)
GI50 (IGROV-1): 40.3 µM (inactive)
GI50 (K562): 13.8 µM (inactive)
GI50 (KM-20L2): 26.5 µM (inactive)
GI50 (KM12): 35.2 µM (inactive)
GI50 (LOX IMVI): 13.3 µM (inactive)
GI50 (LXFL 529): 39.9 µM (inactive)
GI50 (M14): 44.7 µM (inactive)
GI50 (M19-MEL): 43.9 µM (inactive)
GI50 (Malme-3M): > 100 µM (inactive)
GI50 (NCI-H226): > 100 µM (inactive)
GI50 (NCI-H23): 12.9 µM (inactive)
GI50 (NCI-H460): 62.2 µM (inactive)
GI50 (NCI-H522): 26.5 µM (inactive)
GI50 (OVCAR-3): 43 µM (inactive)
GI50 (OVCAR-4): 29.2 µM (inactive)
GI50 (OVCAR-5): 16.1 µM (inactive)
GI50 (OVCAR-8): > 100 µM (inactive)
GI50 (RXF 393): 12.1 µM (inactive)
GI50 (SF-268): 46.9 µM (inactive)
GI50 (SF-295): 18.5 µM (inactive)
GI50 (SF-539): 77.6 µM (inactive)
GI50 (SK-MEL-28): > 100 µM (inactive)
GI50 (SK-MEL-2): 37.8 µM (inactive)
GI50 (SK-MEL-5): 24.9 µM (inactive)
GI50 (SK-OV-3): 42.5 µM (inactive)
GI50 (SN12C): 53.5 µM (inactive)
GI50 (SNB-19): > 100 µM (inactive)
GI50 (SNB-75): 18.7 µM (inactive)
GI50 (SNB-78): > 100 µM (inactive)
GI50 (SW-620): 67 µM (inactive)
GI50 (TK-10): 83.6 µM (inactive)
GI50 (U-251): 33.2 µM (inactive)
GI50 (UACC-257): 38.8 µM (inactive)
GI50 (UACC-62): 22.2 µM (inactive)
GI50 (UO-31): 29.7 µM (inactive)
GI50 (XF498): 28.4 µM (inactive)

CC(C)c1ccccc1NC(=O)/C(Cl)=C1/Sc2ccccc2NC1=O
GI50 (786-0): 30.5 µM (inactive)
GI50 (A498): 32.6 µM (inactive)
GI50 (A549): 32.3 µM (inactive)
GI50 (ACHN): 37.4 µM (inactive)
GI50 (CAKI-1): 17.5 µM (inactive)
GI50 (CCRF-CEM): 24.6 µM (inactive)
GI50 (COLO 205): 21.4 µM (inactive)
GI50 (DLD-1): 35.5 µM (inactive)
GI50 (DMS-114): 18.5 µM (inactive)
GI50 (EKVX): 49.1 µM (inactive)
GI50 (HCC 2998): 23.6 µM (inactive)
GI50 (HCT-116): 28.8 µM (inactive)
GI50 (HCT-15): 22.8 µM
GI50 (HL-60): 21.2 µM (inactive)
GI50 (HOP-62): 30.8 µM (inactive)
GI50 (HOP-92): 11.6 µM (inactive)
GI50 (IGROV-1): 27 µM (inactive)
GI50 (K562): 14.8 µM (inactive)
GI50 (KM-20L2): 24.2 µM (inactive)
GI50 (LOX IMVI): 29.2 µM (inactive)
GI50 (LXFL 529): 14.5 µM (inactive)
GI50 (M14): 22.4 µM (inactive)
GI50 (M19-MEL): 34 µM (inactive)
GI50 (MOLT-4): 24.8 µM (inactive)
GI50 (Malme-3M): 20 µM (inactive)
GI50 (NCI-H226): 26.9 µM (inactive)
GI50 (NCI-H23): 19.6 µM (inactive)
GI50 (NCI-H460): 34.5 µM (inactive)
GI50 (NCI-H522): 17.9 µM (inactive)
GI50 (OVCAR-4): 21.9 µM (inactive)
GI50 (OVCAR-5): 43.3 µM (inactive)
GI50 (OVCAR-8): 43.4 µM (inactive)
GI50 (RPMI-8226): 20.9 µM (inactive)
GI50 (RXF 393): 13.3 µM (inactive)
GI50 (RXF 631): 34 µM (inactive)
GI50 (SF-268): 34 µM (inactive)
GI50 (SF-539): 21.9 µM (inactive)
GI50 (SK-MEL-28): 33.4 µM (inactive)
GI50 (SK-MEL-2): 15.7 µM (inactive)
GI50 (SK-MEL-5): 20.6 µM (inactive)
GI50 (SK-OV-3): 18.4 µM (inactive)
GI50 (SN12C): 34 µM (inactive)
GI50 (SNB-19): 38.5 µM (inactive)
GI50 (SNB-75): 22.7 µM (inactive)
GI50 (SNB-78): 30.5 µM (inactive)
GI50 (SW-620): 25.2 µM (inactive)
GI50 (TK-10): 71.9 µM (inactive)
GI50 (U-251): 35 µM (inactive)
GI50 (UACC-62): 20.3 µM (inactive)
GI50 (UO-31): 32.8 µM (inactive)

CC(C(=O)c1ccccc1)C1(O)C(=O)Nc2ccccc21 (stereo not given)
GI50 (786-0): > 100 µM (inactive)
GI50 (A498): > 100 µM (inactive)
GI50 (A549): > 100 µM (inactive)
GI50 (ACHN): > 100 µM (inactive)
GI50 (CAKI-1): > 100 µM (inactive)
GI50 (CCRF-CEM): > 100 µM (inactive)
GI50 (COLO 205): > 100 µM (inactive)
GI50 (DLD-1): > 100 µM (inactive)
GI50 (DMS-114): > 100 µM (inactive)
GI50 (DMS-273): > 100 µM (inactive)
GI50 (EKVX): > 100 µM (inactive)
GI50 (HCC 2998): > 100 µM (inactive)
GI50 (HCT-116): > 100 µM (inactive)
GI50 (HCT-15): > 100 µM
GI50 (HOP-18): > 100 µM (inactive)
GI50 (HOP-62): > 100 µM (inactive)
GI50 (HOP-92): > 100 µM (inactive)
GI50 (HT-29): > 100 µM (inactive)
GI50 (IGROV-1): > 100 µM (inactive)
GI50 (K562): > 100 µM (inactive)
GI50 (KM-20L2): > 100 µM (inactive)
GI50 (KM12): > 100 µM (inactive)
GI50 (LOX IMVI): > 100 µM (inactive)
GI50 (M14): > 100 µM (inactive)
GI50 (M19-MEL): > 100 µM (inactive)
GI50 (MOLT-4): > 100 µM (inactive)
GI50 (Malme-3M): > 100 µM (inactive)
GI50 (NCI-H226): > 100 µM (inactive)
GI50 (NCI-H23): > 100 µM (inactive)
GI50 (NCI-H460): > 100 µM (inactive)
GI50 (NCI-H522): > 100 µM (inactive)
GI50 (OVCAR-3): > 100 µM (inactive)
GI50 (OVCAR-4): > 100 µM (inactive)
GI50 (OVCAR-5): > 100 µM (inactive)
GI50 (RPMI-8226): > 100 µM (inactive)
GI50 (RXF 393): > 100 µM (inactive)
GI50 (RXF 631): > 100 µM (inactive)
GI50 (SF-268): > 100 µM (inactive)
GI50 (SF-295): > 100 µM (inactive)
GI50 (SF-539): > 100 µM (inactive)
GI50 (SK-MEL-28): > 100 µM (inactive)
GI50 (SK-MEL-2): > 100 µM (inactive)
GI50 (SK-MEL-5): > 100 µM (inactive)
GI50 (SK-OV-3): > 100 µM (inactive)
GI50 (SN12C): > 100 µM (inactive)
GI50 (SNB-19): > 100 µM (inactive)
GI50 (SNB-75): > 100 µM (inactive)
GI50 (SNB-78): > 100 µM (inactive)
GI50 (SR): > 100 µM (inactive)
GI50 (SW-620): > 100 µM (inactive)
GI50 (TK-10): > 100 µM (inactive)
GI50 (U-251): > 100 µM (inactive)
GI50 (UACC-257): > 100 µM (inactive)
GI50 (UACC-62): > 100 µM (inactive)
GI50 (UO-31): > 100 µM (inactive)
